Consider 5 molecules from ChEMBL document CHEMBL1155301, “Optimization of the aminopyridopyrazinones class of PDE5 inhibitors: discovery of 3-[(trans-4-hydroxycyclohexyl)amino]-7-(6-methoxypyridin-3-yl)-1-(2-propoxyethyl)pyrido[3,4-b]pyrazin-2(1H)-one” (Bioorg Med Chem Lett, 2009).

Where “and” joins values, the source holds several entries; their conditions need not be identical. Equal entries are not always repeated. Calls of active or inactive are those of the source. Bounds are passed on as bounds.

Data set [1] in a line: Half life in rat. The format is ADME, organism-based. The following applies: in vivo.
The target in data set [2] is Rod cGMP-specific 3',5'-cyclic phosphodiesterase subunit alpha (Homo sapiens, UniProt P16499). In words: Inhibition of PDE6.
Chain of Rod cGMP-specific 3',5'-cyclic phosphodiesterase subunit alpha (P16499 whole entry): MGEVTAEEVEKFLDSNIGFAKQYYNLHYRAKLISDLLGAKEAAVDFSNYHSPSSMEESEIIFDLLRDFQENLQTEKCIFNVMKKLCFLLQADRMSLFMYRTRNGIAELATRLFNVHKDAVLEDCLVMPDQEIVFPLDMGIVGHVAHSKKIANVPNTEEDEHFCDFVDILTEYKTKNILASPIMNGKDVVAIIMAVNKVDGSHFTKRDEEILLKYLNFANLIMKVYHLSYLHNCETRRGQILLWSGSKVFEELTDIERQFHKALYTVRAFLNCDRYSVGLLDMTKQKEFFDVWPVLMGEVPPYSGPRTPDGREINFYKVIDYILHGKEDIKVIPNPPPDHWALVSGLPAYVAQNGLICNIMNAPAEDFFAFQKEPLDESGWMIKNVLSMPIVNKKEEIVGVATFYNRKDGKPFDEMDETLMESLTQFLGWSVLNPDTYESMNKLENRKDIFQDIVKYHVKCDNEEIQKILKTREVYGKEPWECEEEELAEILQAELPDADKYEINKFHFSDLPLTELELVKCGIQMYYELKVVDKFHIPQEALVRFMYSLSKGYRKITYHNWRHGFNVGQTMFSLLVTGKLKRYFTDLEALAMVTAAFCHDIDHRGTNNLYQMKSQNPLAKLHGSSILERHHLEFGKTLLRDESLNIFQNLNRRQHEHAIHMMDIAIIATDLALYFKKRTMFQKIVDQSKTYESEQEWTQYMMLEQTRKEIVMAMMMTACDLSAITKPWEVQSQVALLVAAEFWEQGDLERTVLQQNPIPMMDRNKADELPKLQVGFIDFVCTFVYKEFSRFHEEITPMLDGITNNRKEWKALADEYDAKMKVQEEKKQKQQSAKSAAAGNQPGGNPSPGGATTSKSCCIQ
Data set [3] addresses cGMP-specific 3',5'-cyclic phosphodiesterase (Homo sapiens, UniProt O76074). In words: Inhibition of PDE5.
For data set [4], the species on record is Rattus norvegicus. Description: Unbound clearance in rat. The format is ADME, organism-based. Conditions: in vivo.
Data set [5] can be described thus: Clearance in rat at 2 mg/kg, po and 2 mg/kg, iv. The format is ADME, organism-based. The following applies: in vivo.
Data set [6] in a line: Volume of distribution in rat at 2 mg/kg, iv and 2 mg/kg, po. The format is ADME, organism-based. Conditions: in vivo.
The species named for data set [7] is Rattus norvegicus. Description: Unbound volume of distribution in rat. Conditions: in vivo. The format is ADME, organism-based.
Data set [8] can be described thus: Selectivity ratio of IC50 for PDE5 to IC50 for PDE6.
Data set [9] in a line: Half life in rat at 2 mg/kg, po and 2 mg/kg, iv. The format is ADME, organism-based. The following applies: in vivo.
Data set [10] is described as follows: Oral bioavailability in rat at 2 mg/kg. The format is ADME, organism-based. Conditions: in vivo.
The target of data set [11] is Dual specificity calcium/calmodulin-dependent 3',5'-cyclic nucleotide phosphodiesterase 1A (Homo sapiens, UniProt P54750). Description: Inhibition of PDE1A.
The target of data set [12] is High affinity cGMP-specific 3',5'-cyclic phosphodiesterase 9A (Homo sapiens, UniProt O76083). In words: Inhibition of PDE9.
Chain of High affinity cGMP-specific 3',5'-cyclic phosphodiesterase 9A (O76083 whole entry): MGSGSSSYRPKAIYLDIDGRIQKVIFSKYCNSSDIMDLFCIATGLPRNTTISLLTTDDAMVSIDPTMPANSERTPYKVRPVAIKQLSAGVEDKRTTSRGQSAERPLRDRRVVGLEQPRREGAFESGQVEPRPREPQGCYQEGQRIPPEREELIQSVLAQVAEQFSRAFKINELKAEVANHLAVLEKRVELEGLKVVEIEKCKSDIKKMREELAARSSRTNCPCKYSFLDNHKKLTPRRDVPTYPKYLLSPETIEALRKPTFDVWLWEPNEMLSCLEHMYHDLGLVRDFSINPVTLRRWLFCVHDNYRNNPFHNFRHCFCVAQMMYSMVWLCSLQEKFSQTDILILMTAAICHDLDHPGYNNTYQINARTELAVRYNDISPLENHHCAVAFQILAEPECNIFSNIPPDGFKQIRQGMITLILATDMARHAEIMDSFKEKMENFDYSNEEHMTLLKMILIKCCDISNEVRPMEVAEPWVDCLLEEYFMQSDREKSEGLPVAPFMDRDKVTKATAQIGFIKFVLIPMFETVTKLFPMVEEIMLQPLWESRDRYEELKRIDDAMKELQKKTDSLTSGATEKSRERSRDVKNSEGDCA
Data set [13] has as its target High affinity cAMP-specific and IBMX-insensitive 3',5'-cyclic phosphodiesterase 8B (Homo sapiens, UniProt O95263). In words: Inhibition of PDE8B.
Data set [14] deals with cGMP-inhibited 3',5'-cyclic phosphodiesterase 3B (Homo sapiens, UniProt Q13370). In words: Inhibition of PDE3B.
Chain of cGMP-inhibited 3',5'-cyclic phosphodiesterase 3B (Q13370 whole entry): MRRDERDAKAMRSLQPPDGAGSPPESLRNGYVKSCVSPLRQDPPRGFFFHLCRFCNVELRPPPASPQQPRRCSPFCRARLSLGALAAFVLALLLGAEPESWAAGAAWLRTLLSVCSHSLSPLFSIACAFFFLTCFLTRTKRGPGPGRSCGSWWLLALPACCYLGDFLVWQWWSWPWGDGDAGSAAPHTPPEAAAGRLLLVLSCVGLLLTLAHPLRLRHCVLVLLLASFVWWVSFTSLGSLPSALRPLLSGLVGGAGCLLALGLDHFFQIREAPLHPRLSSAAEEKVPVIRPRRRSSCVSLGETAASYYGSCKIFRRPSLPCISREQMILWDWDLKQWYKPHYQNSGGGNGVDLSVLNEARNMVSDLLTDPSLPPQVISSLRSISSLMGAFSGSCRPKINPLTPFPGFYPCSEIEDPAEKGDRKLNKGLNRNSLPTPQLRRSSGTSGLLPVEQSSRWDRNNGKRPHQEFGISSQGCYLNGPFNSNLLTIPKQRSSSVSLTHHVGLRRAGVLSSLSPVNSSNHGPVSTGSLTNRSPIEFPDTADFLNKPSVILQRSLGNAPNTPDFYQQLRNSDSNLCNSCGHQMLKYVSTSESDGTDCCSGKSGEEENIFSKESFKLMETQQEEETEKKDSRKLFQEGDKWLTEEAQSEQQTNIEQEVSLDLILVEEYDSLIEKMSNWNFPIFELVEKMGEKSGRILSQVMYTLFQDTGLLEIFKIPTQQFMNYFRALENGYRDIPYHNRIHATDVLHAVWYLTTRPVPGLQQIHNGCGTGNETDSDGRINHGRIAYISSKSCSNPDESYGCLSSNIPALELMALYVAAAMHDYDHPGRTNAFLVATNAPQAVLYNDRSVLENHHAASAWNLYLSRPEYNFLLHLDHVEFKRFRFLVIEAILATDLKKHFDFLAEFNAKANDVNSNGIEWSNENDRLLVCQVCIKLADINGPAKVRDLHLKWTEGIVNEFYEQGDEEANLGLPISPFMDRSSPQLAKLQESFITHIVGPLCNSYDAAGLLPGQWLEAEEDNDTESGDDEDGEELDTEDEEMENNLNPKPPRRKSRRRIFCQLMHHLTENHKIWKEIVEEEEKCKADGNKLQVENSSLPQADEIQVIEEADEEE
Data set [15] has as its system Rattus norvegicus. Description: Antihypertensive activity against telemeterized rat at 10 mg/kg, po. It counts as functional, organism-based. Set-up: dose 10 mg/kg.
Data set [16] deals with cGMP-inhibited 3',5'-cyclic phosphodiesterase 3A (Homo sapiens, UniProt Q14432). In words: Inhibition of PDE3A.
Data set [17] addresses High affinity cAMP-specific and IBMX-insensitive 3',5'-cyclic phosphodiesterase 8A (Homo sapiens, UniProt O60658). In words: Inhibition of PDE8A.
The nature of data set [18]: Clearance in rat. The format is ADME, organism-based. Conditions: in vivo.
The target of data set [19] is 3',5'-cyclic-AMP phosphodiesterase 4A (Homo sapiens, UniProt P27815). In words: Inhibition of PDE4A.
Chain of 3',5'-cyclic-AMP phosphodiesterase 4A (P27815 whole entry): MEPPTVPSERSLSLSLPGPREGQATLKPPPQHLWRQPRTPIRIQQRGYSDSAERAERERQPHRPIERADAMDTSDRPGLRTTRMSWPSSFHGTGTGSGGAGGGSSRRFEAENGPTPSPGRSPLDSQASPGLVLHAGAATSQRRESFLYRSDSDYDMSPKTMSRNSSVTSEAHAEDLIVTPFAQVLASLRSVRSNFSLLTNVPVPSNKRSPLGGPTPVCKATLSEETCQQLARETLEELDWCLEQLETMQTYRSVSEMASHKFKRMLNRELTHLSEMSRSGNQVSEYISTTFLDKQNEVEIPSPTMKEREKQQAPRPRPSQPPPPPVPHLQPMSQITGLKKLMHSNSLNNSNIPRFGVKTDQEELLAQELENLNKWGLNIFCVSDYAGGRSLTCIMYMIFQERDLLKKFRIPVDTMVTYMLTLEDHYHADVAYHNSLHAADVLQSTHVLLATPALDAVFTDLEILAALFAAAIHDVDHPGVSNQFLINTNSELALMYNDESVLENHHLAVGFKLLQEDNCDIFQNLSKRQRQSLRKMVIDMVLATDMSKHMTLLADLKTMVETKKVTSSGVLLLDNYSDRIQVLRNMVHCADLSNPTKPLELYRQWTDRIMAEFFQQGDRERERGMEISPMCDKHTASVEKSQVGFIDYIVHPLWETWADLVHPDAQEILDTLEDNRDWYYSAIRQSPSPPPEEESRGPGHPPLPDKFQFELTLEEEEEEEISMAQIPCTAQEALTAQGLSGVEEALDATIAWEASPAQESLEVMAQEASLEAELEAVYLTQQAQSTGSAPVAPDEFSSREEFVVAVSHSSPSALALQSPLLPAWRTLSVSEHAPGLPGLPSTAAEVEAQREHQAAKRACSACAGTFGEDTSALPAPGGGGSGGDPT
For data set [20], the target named is Dual specificity calcium/calmodulin-dependent 3',5'-cyclic nucleotide phosphodiesterase 1C (Homo sapiens, UniProt Q14123). Description: Inhibition of PDE1C.
Data set [21] addresses 3',5'-cyclic-AMP phosphodiesterase 4B (Homo sapiens, UniProt Q07343). In words: Inhibition of PDE4B.
Data set [22] addresses Dual specificity calcium/calmodulin-dependent 3',5'-cyclic nucleotide phosphodiesterase 1B (Homo sapiens, UniProt Q01064). Description: Inhibition of PDE1B.
The target of data set [23] is 3',5'-cyclic-AMP phosphodiesterase 4C (Homo sapiens, UniProt Q08493). Description: Inhibition of PDE4C.
Data set [24] deals with 3',5'-cyclic-AMP phosphodiesterase 7B (Homo sapiens, UniProt Q9NP56). Description: Inhibition of PDE7B.
Data set [25] addresses cGMP-dependent 3',5'-cyclic phosphodiesterase (Homo sapiens, UniProt O00408). In words: Inhibition of PDE2.
The target of data set [26] is High affinity 3',5'-cyclic-AMP phosphodiesterase 7A (Homo sapiens, UniProt Q13946). In words: Inhibition of PDE7A.
Data set [27] has as its target Dual 3',5'-cyclic-AMP and -GMP phosphodiesterase 11A (Homo sapiens, UniProt Q9HCR9). Description: Inhibition of PDE11.
Data set [28] is described as follows: Volume of distribution in dog at 2 mg/kg, iv and 2 mg/kg, po. Conditions: in vivo. It counts as ADME, organism-based, Canis lupus familiaris.
Data set [29] is described as follows: Oral bioavailability in dog at 2 mg/kg. The format is ADME, organism-based, Canis lupus familiaris. Conditions: in vivo.
A short description of data set [30]: Clearance in dog at 2 mg/kg, po and 2 mg/kg, iv. It counts as ADME, organism-based, Canis lupus familiaris. Conditions: in vivo.
Data set [31] can be described thus: Half life in dog at 2 mg/kg, po and 2 mg/kg, iv. It counts as ADME, organism-based, Canis lupus familiaris. Conditions: in vivo.
The target in data set [32] is 3',5'-cyclic-AMP phosphodiesterase 4D (Homo sapiens, UniProt Q08499).
The nature of data set [33]: Permeability from apical to basolateral side in human Caco-2 cells. It counts as ADME, cell-based. The following applies: read-out: permeability.

Chain of 3',5'-cyclic-AMP phosphodiesterase 4B (Q07343 whole entry): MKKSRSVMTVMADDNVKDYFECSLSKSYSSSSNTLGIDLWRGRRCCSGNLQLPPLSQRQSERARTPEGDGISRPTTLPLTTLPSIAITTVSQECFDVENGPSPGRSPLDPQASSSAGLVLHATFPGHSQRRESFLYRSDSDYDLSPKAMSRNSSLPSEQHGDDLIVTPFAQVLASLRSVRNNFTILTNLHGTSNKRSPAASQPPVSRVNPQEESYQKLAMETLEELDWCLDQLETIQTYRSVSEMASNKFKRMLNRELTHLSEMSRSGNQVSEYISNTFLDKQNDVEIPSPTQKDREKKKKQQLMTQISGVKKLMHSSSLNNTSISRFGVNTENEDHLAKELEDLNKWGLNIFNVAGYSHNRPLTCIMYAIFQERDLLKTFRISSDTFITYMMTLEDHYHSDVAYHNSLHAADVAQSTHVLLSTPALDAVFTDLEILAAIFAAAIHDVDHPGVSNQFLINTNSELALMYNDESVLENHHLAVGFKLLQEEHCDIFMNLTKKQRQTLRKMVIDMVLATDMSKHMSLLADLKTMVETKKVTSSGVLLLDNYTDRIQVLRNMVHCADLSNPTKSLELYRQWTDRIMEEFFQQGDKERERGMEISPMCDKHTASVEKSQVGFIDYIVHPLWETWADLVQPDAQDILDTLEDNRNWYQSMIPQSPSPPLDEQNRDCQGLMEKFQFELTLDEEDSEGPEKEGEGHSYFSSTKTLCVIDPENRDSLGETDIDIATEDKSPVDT
Chain of Dual specificity calcium/calmodulin-dependent 3',5'-cyclic nucleotide phosphodiesterase 1B (Q01064 whole entry): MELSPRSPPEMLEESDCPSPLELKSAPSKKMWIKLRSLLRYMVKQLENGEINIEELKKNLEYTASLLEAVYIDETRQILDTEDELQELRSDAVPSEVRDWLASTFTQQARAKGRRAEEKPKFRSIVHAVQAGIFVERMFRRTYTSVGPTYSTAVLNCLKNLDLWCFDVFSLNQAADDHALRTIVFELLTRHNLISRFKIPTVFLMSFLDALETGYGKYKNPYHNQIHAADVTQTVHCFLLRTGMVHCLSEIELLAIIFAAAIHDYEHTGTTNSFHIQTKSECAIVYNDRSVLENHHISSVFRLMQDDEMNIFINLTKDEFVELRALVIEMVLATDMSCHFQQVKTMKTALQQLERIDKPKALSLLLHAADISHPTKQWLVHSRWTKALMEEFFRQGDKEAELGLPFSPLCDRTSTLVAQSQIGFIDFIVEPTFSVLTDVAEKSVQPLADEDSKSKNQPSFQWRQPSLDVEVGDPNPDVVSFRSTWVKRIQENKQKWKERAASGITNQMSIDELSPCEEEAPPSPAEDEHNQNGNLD

A word on the half-life: it is the time needed for the level to fall by half in the phase considered. Low values mean rapid decline, high ones slow decline. As usually defined, the IC50 is the concentration at which inhibition is half-maximal. Take `CCCOCCn1c(=O)c(NCCN2CCOCC2)nc2ncc(-c3ccc(OC)nc3)cc21`: the half-life in [1] is 1.8 h. In addition, the IC50 in data set [2] was 61.8 nM.
One may read the bioavailability as dose-corrected exposure relative to a reference, in per cent. Lower therefore signals little systemic uptake. Regarding `CCCOCCn1c(=O)c(NCCCO)nc2cnc(-c3ccc(OC)nc3)cc21`, the IC50 in data set [3] was found to be 0.26 nM; in data set [2], 13.8 nM. Also, in data set [4], the CL free is 730 mL/min/kg. For the same molecule, in [5], the clearance was determined as 28 mL/min/kg. For the same molecule, the Vd in [6] turned out to be 1.2 L/kg. In data set [7], this molecule gave a Vdu of 31 L/kg. Also, the Ratio IC50 in data set [8] was found to be 30. Also, in [9], the half-life is 0.7 h. This molecule had a bioavailability in [10] of 52%.
For `CCCOCCn1c(=O)c(NCCN2CCOCC2)nc2cnc(-c3ccc(OC)nc3)cc21`, the half-inhibitory concentration (IC50) in data set [11], in [12], in [13], in data set [14], in data set [16] and in data set [17] was over 2000 nM throughout. In addition, the IC50 in data set [19], in data set [20], in data set [21], in [22], in data set [23] and in [24] was over 2000 nM in each case. The IC50 in [25] is over 2000 nM; in data set [26], over 2000 nM; in [27], 346 nM; in data set [2] it was 11.3 nM. Besides, the half-life in data set [1] is 0.8 h. Also, the outcome in [15] was Active. The molecule also registered a clearance in data set [18] of 33 mL/min/kg.
`CCCOCCn1c(=O)c(NC[C@H](C)O)nc2cnc(-c3ccc(OC)nc3)cc21`: the IC50 was determined as 0.09 nM in data set [3] and 15.3 nM in data set [2]. Besides, in data set [4], the CL free amounted to 500 mL/min/kg. Moreover, the Vd came out at 4.3 L/kg in [28] and 1 L/kg in data set [6]. The bioavailability in data set [29] is 38%; in data set [10], 42%. Moreover, the results for the clearance in data set [30] and in data set [5] were 17.8 mL/min/kg and 13.8 mL/min/kg, respectively. In [7], the Vdu came to 35 L/kg. Also, the half-life is 1.3 h in data set [9] and 4.1 h in data set [31].
On to `CCCOCCn1c(=O)c(N[C@H]2CC[C@H](O)CC2)nc2cnc(-c3ccc(OC)nc3)cc21`, for which the half-inhibitory concentration (IC50) was over 2000 nM in data set [11]; over 2000 nM in [12]; 0.05 nM in data set [3]; over 2000 nM in data set [13]; over 2000 nM in data set [14]; over 2000 nM in data set [16]. In addition, the IC50 was over 2000 nM in data set [17]; 1210 nM in data set [32]; over 2000 nM in data set [19]; over 2000 nM in data set [20]; > 2000 nM and 290 nM in [21]; over 2000 nM in [22]. The IC50 in data set [23] is over 2000 nM; in data set [24], over 2000 nM; in data set [25] it was over 2000 nM; in data set [26] it was over 2000 nM; in [27] it was 64.1 nM; in data set [2], 9.8 nM. Moreover, the CL free in data set [4] is 400 mL/min/kg. For the same molecule, the Vd was found to be 3.7 L/kg in [28] and 1.4 L/kg in [6]. Moreover, the bioavailability came out at 75% in [29] and 50% in data set [10]. Moreover, the clearance in data set [30] is 3.5 mL/min/kg; in data set [5], 5.5 mL/min/kg. For the same molecule, the outcome in data set [15] was Active. The same molecule showed a Vdu in data set [7] of 100 L/kg. In addition, the half-life in data set [9] is 4.1 h; in [31] it was 17.6 h. Moreover, the Papp A→B in data set [33] was 34 ×10⁻⁶ cm/s.
